Test system: HCV-JFH1
Experiment: Test of neutralization by interferon alfa of infection of human intrahepatic fibroblasts with HCV-JFH1
Format: cell-based, hepatitis C virus
Settings: human intrahepatic fibroblasts preincubated 1 h at 37° C. with 500 U/ml of interferon alfa, infected at 0.1 FFU per cell; FIG. 8
Method: The intrahepatic fibroblasts were infected one day after being put in culture with HCV-JFH1 to a multiplicity of infection of 0.1 FFU per cell. After incubation overnight at 37° C., the cellular monolayers were washed three times with phosphate-buffered saline and then grown in standard conditions (Aoudjehane et al., Lab. Invest., 88: 973-985, 2008) in DMEM medium (Gibco) 10% FCS in the presence of penicillin and streptomycin (1%) as well as pyruvate (1%).
In order to determine whether the HCV genome is capable of replicating in intrahepatic fibroblasts inoculated with HCV-JFH1, the strands of positive RNA (genomic RNA) and the strands of negative RNA (antisense RNA) were quantified. For this purpose, the cells were taken on D3, D6 and D9 post-infection, washed in PBS buffer, then prepared using the “RNeasy minikit” extraction kit (QIAGEN S.A, Courtaboeuf, France) according to the supplier's recommendations, the cells having been lysed in 300 μl of buffer for 3.10^5 cells. The intracellular RNAs were quantified by quantitative RT-PCR specific to each strand as described by Carriere et al. (J. Med. Virol., 79: 155-160, 2007). […]

Substance: interferon alfa
- amount of negative-strand HCV RNA: decrease
- amount of positive-strand HCV RNA: decrease

Source: patent US20130101986A1, “In Vitro Method for obtaining Intrahepatic Fibroblasts Infected with Hepatitis C Virus” (priority 2009, published 2013)
